Consider 1 compound from patent US11773157B2, “Compositions and methods for treating and preventing Staphylococcus aureus infections” (priority 2014, dated 2023).

The structures appear in SMILES notation.

In this assay the test system is MRSA (NR 46223). As to the kind of experiment: In vivo survival, MRSA bacteremia with vancomycin co-treatment. Further details: species or system Balb/C mice. The settings on record: 0.5 mg vancomycin i.p. alone (0 mg PA8-G3), two hours prior to infection; 3×10^7 CFU i.v.; PBS 10%. The procedure:
Referring to FIGS. 8A-C, at day 14, only 10% of the PBS treated mice survived, 30% of the vancomycin treated mice survived. […] Statistical analysis of the animal data was conducted using Kaplan-Meier Survival Analysis with a Mantel-Cox (logrank) test.

Consider `CN[C@H](CC(C)C)C(=O)N[C@H]1C(=O)N[C@@H](CC(N)=O)C(=O)N[C@H]2C(=O)N[C@H]3C(=O)N[C@H](C(=O)N[C@H](C(=O)O)c4cc(O)cc(O)c4-c4cc3ccc4O)[C@H](O)c3ccc(c(Cl)c3)Oc3cc2cc(c3O[C@@H]2O[C@H](CO)[C@@H](O)[C@H](O)[C@H]2O[C@H]2C[C@](C)(N)[C@H](O)[C@H](C)O2)Oc2ccc(cc2Cl)[C@H]1O` [vancomycin, reference compound], for which the “mice survived at day 14” value was 30%.
